The subject of one experiment is MRC5. In words: Antiproliferative activity against human MRC5 cells after 72 hrs by MTT assay. The experiment is classed as cell-based. Particulars: MRC5, 72 h.
A further experiment deals with HL-60. The experiment is described as follows: Antiproliferative activity against human HL60 cells after 72 hrs by MTT assay. Type of experiment: functional, cell-based. To be noted: HL-60, 72 h. In general terms: Tetrazolium dyes change colour on reduction, which living cells bring about.
In another experiment the test system is HeLa. In words: Antiproliferative activity against human HeLa cells after 72 hrs by MTT assay. The experiment is classed as functional, cell-based.
The test system of experiment [1] is Raji. The experiment is described as follows: Ratio of doxorubicin IC50 to compound IC50 for human Raji cells. The experiment is classed as functional.
A further experiment concerns Jurkat. The experiment is described as follows: Antiproliferative activity against human Jurkat cells after 72 hrs by MTT assay. Type of experiment: functional, cell-based.
Experiment [2] relates to Raji. In words: Antiproliferative activity against human Raji cells after 72 hrs by MTT assay. Type of experiment: functional, cell-based.
The subject of the next experiment is K562. In words: Antiproliferative activity against human K562 cells after 72 hrs by MTT assay. The experiment is classed as functional, cell-based. To be noted: K562, 72 h.

We go through 7 compounds from ChEMBL document CHEMBL2429810, “Heteroannelated and 7-deoxygenated goniofufurone mimics with antitumour activity: design, synthesis and preliminary SAR studies” (Bioorg Med Chem Lett, 2013).

In general, pIC50 refers to the IC50 on a negative log10 scale, so that one unit is a factor of ten. Read a low pIC50 as a large IC50.

pIC50: −log10 of the molar value.

Turning to `O=C1C[C@H]2O[C@H](Cc3ccccc3)[C@H](O)[C@H]2O1`, the pIC50 in the experiment on MRC5 was less than 4.00.

With `O=C1C[C@H]2O[C@H]([C@H](O)c3ccccc3)[C@H](O)[C@H]2O1`, the negative logarithm of the IC50 (pIC50) in the experiment on MRC5 and in the experiment with HL-60 was less than 4.00 each time.

Consider `O=C1C[C@@H]2O[C@@H](Cc3ccccc3)[C@@H](O)[C@@H]2O1`, for which the pIC50 in the experiment with HeLa was 5.92; in the experiment with MRC5, less than 4.00; in the experiment with Jurkat, 6.92; in the experiment with Raji [2], 7.52; in the experiment with K562 it was 7.70; in the experiment on HL-60, 6.77. For the same compound, the “Ratio IC50” value in the experiment on Raji [1] is recorded as 100.

As for `O=C1C[C@H]2O[C@H](Cc3ccccc3)[C@H](OCc3ccccc3)[C@H]2O1`, the pIC50 in the experiment on HeLa is 5.36; in the experiment on MRC5, less than 4.00; in the experiment on Jurkat, 6.00; in the experiment on Raji [2], 5.02; with K562 it was 6.85; in the experiment with HL-60, 6.25.

Take `Cc1ccccc1[C@H](c1ccccc1)[C@H]1O[C@@H]2CC(=O)O[C@@H]2[C@H]1O`: the pIC50 is 4.94 in the experiment on HeLa; less than 4.00 in the experiment with MRC5; 4.67 in the experiment with Jurkat; 5.25 with Raji [2]; 5.81 in the experiment with K562; 4.93 in the experiment with HL-60.

As to `O=C1C[C@H]2O[C@@H]3[C@@H](c4ccccc4)c4ccccc4CO[C@@H]3[C@H]2O1`, the pIC50 with HeLa is less than 4.00; with MRC5 it was less than 4.00; in the experiment with Jurkat, 7.13; in the experiment on Raji [2] it was 6.34; with K562, 5.84; in the experiment with HL-60, 6.11.

Regarding `O=C1C[C@@H]2O[C@H]3[C@H](c4ccccc4)c4ccccc4CO[C@H]3[C@@H]2O1`, the pIC50 is 5.18 with HeLa; less than 4.00 in the experiment on MRC5; 4.73 in the experiment with Jurkat; 4.80 in the experiment with Raji [2]; 5.92 in the experiment with K562; 4.93 in the experiment on HL-60.
